{"source": "ChEMBL document CHEMBL5226379", "about": "“Hypouricemic Actions of the Pericarp of Mangosteen in Vitro and in Vivo” (J Nat Prod, 2023)", "key": {"[1]": {"target": "T1, Solute carrier family 22 member 12 (Homo sapiens, UniProt Q96S37)", "T1 sequence (Q96S37 whole entry)": "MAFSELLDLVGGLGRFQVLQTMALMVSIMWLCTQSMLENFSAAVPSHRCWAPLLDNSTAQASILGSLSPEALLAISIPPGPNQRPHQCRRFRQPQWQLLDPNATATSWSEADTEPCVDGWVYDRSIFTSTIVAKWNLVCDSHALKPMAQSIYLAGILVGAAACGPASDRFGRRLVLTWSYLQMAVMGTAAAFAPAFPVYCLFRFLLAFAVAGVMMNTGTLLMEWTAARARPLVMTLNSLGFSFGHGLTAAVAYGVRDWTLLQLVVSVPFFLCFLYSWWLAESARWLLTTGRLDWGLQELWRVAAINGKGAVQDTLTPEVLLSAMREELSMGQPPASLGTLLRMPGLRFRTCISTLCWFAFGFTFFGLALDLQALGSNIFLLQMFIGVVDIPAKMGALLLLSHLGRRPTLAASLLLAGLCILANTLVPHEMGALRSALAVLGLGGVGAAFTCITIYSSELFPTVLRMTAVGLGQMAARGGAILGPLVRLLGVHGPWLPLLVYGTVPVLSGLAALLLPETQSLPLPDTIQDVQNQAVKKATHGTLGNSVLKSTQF", "assay": "Inhibition of human URAT1-mediated [8-14C]uric acid uptake expressed in HEK293 cells using [8-14C]uric acid as substrate by liquid scintillation counter analysis", "assay_type": "cell-based"}, "[2]": {"assay": "Acute toxicity in mouse assessed as change in body weight at 50 g/Kg, IG measured for 14 days", "settings": "in vivo, po, 50000 mg/kg, 336 h, time 14 day"}, "[3]": {"target": "Xanthine dehydrogenase/oxidase (Homo sapiens, UniProt P47989)", "sequence (P47989 whole entry)": "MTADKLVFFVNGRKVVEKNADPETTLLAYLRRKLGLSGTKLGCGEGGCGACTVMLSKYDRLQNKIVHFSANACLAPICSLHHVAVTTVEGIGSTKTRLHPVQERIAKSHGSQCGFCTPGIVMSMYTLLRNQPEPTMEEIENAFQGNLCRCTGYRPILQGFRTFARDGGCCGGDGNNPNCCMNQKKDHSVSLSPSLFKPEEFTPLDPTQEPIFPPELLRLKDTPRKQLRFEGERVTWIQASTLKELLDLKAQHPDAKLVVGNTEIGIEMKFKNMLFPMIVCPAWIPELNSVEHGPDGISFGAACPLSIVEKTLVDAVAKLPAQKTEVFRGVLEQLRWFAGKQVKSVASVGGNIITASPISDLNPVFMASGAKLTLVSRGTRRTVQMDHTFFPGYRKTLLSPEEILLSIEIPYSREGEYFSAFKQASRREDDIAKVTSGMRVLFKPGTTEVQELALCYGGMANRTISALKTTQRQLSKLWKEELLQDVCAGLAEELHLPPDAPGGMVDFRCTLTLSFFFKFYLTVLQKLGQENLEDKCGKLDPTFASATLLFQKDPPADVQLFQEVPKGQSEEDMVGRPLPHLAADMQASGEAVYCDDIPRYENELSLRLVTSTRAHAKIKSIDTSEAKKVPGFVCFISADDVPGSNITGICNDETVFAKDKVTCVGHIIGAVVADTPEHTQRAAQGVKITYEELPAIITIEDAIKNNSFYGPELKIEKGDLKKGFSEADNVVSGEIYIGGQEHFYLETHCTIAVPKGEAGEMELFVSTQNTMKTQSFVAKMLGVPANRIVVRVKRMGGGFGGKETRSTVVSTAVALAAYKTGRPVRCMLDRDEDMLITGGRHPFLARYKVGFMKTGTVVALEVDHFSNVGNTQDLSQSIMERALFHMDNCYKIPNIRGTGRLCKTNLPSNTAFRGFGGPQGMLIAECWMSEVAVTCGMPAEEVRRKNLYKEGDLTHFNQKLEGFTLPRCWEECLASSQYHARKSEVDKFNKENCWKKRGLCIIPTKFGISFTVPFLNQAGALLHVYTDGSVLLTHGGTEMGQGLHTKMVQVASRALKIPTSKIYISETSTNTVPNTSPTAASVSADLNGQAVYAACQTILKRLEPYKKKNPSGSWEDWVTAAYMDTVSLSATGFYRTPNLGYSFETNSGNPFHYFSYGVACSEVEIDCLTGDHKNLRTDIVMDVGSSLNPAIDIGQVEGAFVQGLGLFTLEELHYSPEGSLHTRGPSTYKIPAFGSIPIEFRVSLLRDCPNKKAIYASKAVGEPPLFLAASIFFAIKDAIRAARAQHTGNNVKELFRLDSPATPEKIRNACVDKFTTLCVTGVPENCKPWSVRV", "assay": "Inhibition of XOD (unknown origin) using xanthine as substrate assessed as inhibition of uric acid generation at 50 mg/L preincubated for 15 mins followed by xanthine addition and measured by spectrophotometric analysis relative to control"}, "Homo sapiens": {"species": "Homo sapiens", "assay": "Inhibition of uricase (unknown origin) using uric acid as substrate at 112.5 mg/L preincubated with compounds for 15 mins followed by uric acid addition"}, "Rattus norvegicus [4]": {"test_system": "Rattus norvegicus", "assay": "(§1) Anti-hyperuricemic activity against potassium oxonate-induced hyperuricemic Sprague-Dawley rat model assessed as serum urate level at 1 mg/kg, po pre-administered via gavage twice daily for 5 times followed by potassium oxonate injection for 1 hrs prior to last dose and measured after 3 hrs", "assay_type": "functional", "settings": "time 123 hrs"}, "Rattus norvegicus [5]": {"test_system": "Rattus norvegicus", "assay": "(§2) Anti-hyperuricemic activity against potassium oxonate-induced hyperuricemic Sprague-Dawley rat model assessed as urinary creatinine level at 1 mg/kg, po pre-administered via gavage twice daily for 5 times followed by potassium oxonate injection for 1 hrs prior to last dose and measured after 3 hrs", "assay_type": "functional", "settings": "time 123 hrs"}, "Rattus norvegicus [6]": {"test_system": "Rattus norvegicus", "assay": "Anti-hyperuricemic activity against potassium oxonate-induced hyperuricemic Sprague-Dawley rat model assessed as urine volume at 1 mg/kg, po pre-administered via gavage twice daily for 5 times followed by potassium oxonate injection for 1 hrs prior to last dose and measured after 3 hrs", "assay_type": "functional", "settings": "time 123 hrs"}, "Rattus norvegicus [7]": {"test_system": "Rattus norvegicus", "assay": "as §2, with “clearance of” for “urinary”, “measured per body surface area of 0.0311 m2” for “level”", "assay_type": "functional", "settings": "time 123 hrs"}, "Rattus norvegicus [8]": {"test_system": "Rattus norvegicus", "assay": "(§3) Anti-hyperuricemic activity against potassium oxonate-induced hyperuricemic Sprague-Dawley rat model assessed as fractional excretion of urate at 1 mg/kg, po pre-administered via gavage twice daily for 5 times followed by potassium oxonate injection for 1 hrs prior to last dose and measured after 3 hrs relative to control", "assay_type": "functional", "settings": "time 123 hrs"}, "Rattus norvegicus [9]": {"test_system": "Rattus norvegicus", "assay": "as §1, with “glomerular load of” for “serum”, “measured per body surface area of 0.0311 m2” for “level”", "assay_type": "functional", "settings": "time 123 hrs"}, "Rattus norvegicus [10]": {"test_system": "Rattus norvegicus", "assay": "as §3, with “as” for “as fractional”, “urate per volume of glomerular filtration measured per body surface area of 0.0311 m2” for “urate”, “hrs” for “hrs relative to control”", "assay_type": "functional", "settings": "time 123 hrs"}, "Rattus norvegicus [11]": {"test_system": "Rattus norvegicus", "assay": "(§4) Anti-hyperuricemic activity against potassium oxonate-induced hyperuricemic Sprague-Dawley rat model assessed as ratio of urinary urate to urinary creatinine at 1 mg/kg, po pre-administered via gavage twice daily for 5 times followed by potassium oxonate injection for 1 hrs prior to last dose and measured after 3 hrs", "assay_type": "functional", "settings": "time 123 hrs"}, "Rattus norvegicus [12]": {"test_system": "Rattus norvegicus", "assay": "Anti-hyperuricemic activity against potassium oxonate-induced hyperuricemic Sprague-Dawley rat model assessed as urinary urate level at 2 mg/kg, po pre-administered via gavage twice daily for 5 times followed by potassium oxonate injection for 1 hrs prior to last dose and measured after 3 hrs", "assay_type": "functional", "settings": "time 123 hrs"}, "Rattus norvegicus [13]": {"test_system": "Rattus norvegicus", "assay": "Anti-hyperuricemic activity against potassium oxonate-induced hyperuricemic Sprague-Dawley rat model assessed as serum urea nitrogen level at 2 mg/kg, po pre-administered via gavage twice daily for 5 times followed by potassium oxonate injection for 1 hrs prior to last dose and measured after 3 hrs", "assay_type": "functional", "settings": "time 123 hrs"}, "Rattus norvegicus [14]": {"test_system": "Rattus norvegicus", "assay": "as §3, with “at 2” for “at 1”", "assay_type": "functional", "settings": "time 123 hrs"}, "Rattus norvegicus [15]": {"test_system": "Rattus norvegicus", "assay": "Anti-hyperuricemic activity against potassium oxonate-induced hyperuricemic Sprague-Dawley rat model assessed as urinary urate at 2 mg/kg, po pre-administered via gavage twice daily for 5 times followed by potassium oxonate injection for 1 hrs prior to last dose and measured after 3 hrs", "assay_type": "functional", "settings": "time 123 hrs"}, "Rattus norvegicus [16]": {"test_system": "Rattus norvegicus", "assay": "as §4, with “at 2” for “at 1”", "assay_type": "functional", "settings": "time 123 hrs"}, "Rattus norvegicus [17]": {"test_system": "Rattus norvegicus", "assay": "Anti-hyperuricemic activity against potassium oxonate-induced hyperuricemic Sprague-Dawley rat model assessed as serum creatinine level at 4 mg/kg, po pre-administered via gavage twice daily for 5 times followed by potassium oxonate injection for 1 hrs prior to last dose and measured after 3 hrs", "assay_type": "functional", "settings": "time 123 hrs"}, "Rattus norvegicus [18]": {"test_system": "Rattus norvegicus", "assay": "Anti-hyperuricemic activity against potassium oxonate-induced hyperuricemic Sprague-Dawley rat model assessed as serum urea nitrogen level at 4 mg/kg, po pre-administered via gavage twice daily for 5 times followed by potassium oxonate injection for 1 hrs prior to last dose and measured after 3 hrs", "assay_type": "functional", "settings": "time 123 hrs"}, "Rattus norvegicus [19]": {"test_system": "Rattus norvegicus", "assay": "Anti-hyperuricemic activity against potassium oxonate-induced hyperuricemic Sprague-Dawley rat model assessed as urine volume at 4 mg/kg, po pre-administered via gavage twice daily for 5 times followed by potassium oxonate injection for 1 hrs prior to last dose and measured after 3 hrs", "assay_type": "functional", "settings": "time 123 hrs"}, "Rattus norvegicus [20]": {"test_system": "Rattus norvegicus", "assay": "as §4, with “as glomerular load” for “as ratio”, “of” for “of urinary”, “urate measured per body surface area of 0.0311 m2” for “urate to urinary creatinine”, “at 4” for “at 1”", "assay_type": "functional", "settings": "time 123 hrs"}, "Rattus norvegicus [21]": {"test_system": "Rattus norvegicus", "assay": "Anti-hyperuricemic activity against potassium oxonate-induced hyperuricemic Sprague-Dawley rat model assessed as urinary urate at 4 mg/kg, po pre-administered via gavage twice daily for 5 times followed by potassium oxonate injection for 1 hrs prior to last dose and measured after 3 hrs", "assay_type": "functional", "settings": "time 123 hrs"}, "Mus musculus [22]": {"test_system": "Mus musculus", "assay": "Hypouricemic activity in potassium oxonate-induced hyperuricemic Kunming mouse model assessed as decrease in serum uric acid level pre-administered intragastrically via gavage twice daily for 5 times followed by potassium oxonate injection for 1 hrs prior to last dose by phosphotungstic acid method", "assay_type": "functional, organism-based", "settings": "dose 1-4 mg/kg, time 5.0 day"}, "[23]": {"assay": "Toxicity in Kunming mouse assessed as decrease in serum uric acid level upto 250 mg/kg", "assay_type": "organism-based", "settings": "in vivo"}, "Mus musculus [24]": {"test_system": "Mus musculus", "assay": "Hypouricemic activity in potassium oxonate-induced hyperuricemic Kunming mouse model assessed as decrease in serum XOD level at 1 to 4 mg/kg, IG pre-administered via gavage twice daily for 5 times followed by potassium oxonate injection for 1 hrs prior to last dose", "assay_type": "functional, organism-based", "settings": "dose 1-4 mg/kg, time 5.0 day"}, "Mus musculus [25]": {"test_system": "Mus musculus", "assay": "Anti-hyperuricemic activity against uric acid-induced hyperuricemic Kunming mouse model assessed as decrease in GLUT9 protein level in kidney at 2 to 8 mg/kg, pre-administered with uric acid for 3.5 days followed by compound administration via gavage twice a day for seven times by ELISA analysis", "assay_type": "functional, organism-based", "settings": "dose 2-8 mg/kg, time 7.0 day"}}, "note": "The source made the active and inactive calls. No cut-off for these calls is given here."}
{"smiles": "COc1c(O)cc2oc3cc(O)c(CC=C(C)C)c(O)c3c(=O)c2c1CC=C(C)C", "note": "[MANGOSTIN]", "values": [{"measurement": "IC50", "setting": "[1]", "value": 58.9, "unit": "µM"}, {"measurement": "Activity", "setting": "[2]", "value": "Non-Toxic"}, {"measurement": "inhibition at 50 µg/mL", "setting": "[3]", "value": 4.9, "unit": "%"}, {"measurement": "inhibition", "setting": "Homo sapiens", "value": 6.3, "unit": "%"}, {"measurement": "Activity", "setting": "Rattus norvegicus [4]", "value": 220, "unit": "µmol/L"}, {"measurement": "Activity", "setting": "Rattus norvegicus [5]", "value": 0.9, "unit": "mmol/L"}, {"measurement": "Activity", "setting": "Rattus norvegicus [6]", "value": 6.8, "unit": "mL"}, {"measurement": "Activity", "setting": "Rattus norvegicus [7]", "value": 21.4, "unit": "mL/min"}, {"measurement": "Activity", "setting": "Rattus norvegicus [8]", "value": 71, "unit": "%"}, {"measurement": "Activity", "setting": "Rattus norvegicus [9]", "value": 4.4, "unit": "µmol/min"}, {"measurement": "Activity", "setting": "Rattus norvegicus [10]", "value": 4.9, "unit": "µmol/L"}, {"measurement": "Ratio", "setting": "Rattus norvegicus [11]", "value": 2.7}, {"measurement": "Activity", "setting": "Rattus norvegicus [12]", "value": 2.6, "unit": "mmol/L"}, {"measurement": "Activity", "setting": "Rattus norvegicus [13]", "value": 10.9, "unit": "mmol/L"}, {"measurement": "Activity", "setting": "Rattus norvegicus [14]", "value": 77, "unit": "%"}, {"measurement": "Activity", "setting": "Rattus norvegicus [15]", "value": 465, "unit": "µmol"}, {"measurement": "Ratio", "setting": "Rattus norvegicus [16]", "value": 3.2}, {"measurement": "Activity", "setting": "Rattus norvegicus [17]", "value": 55, "unit": "µmol/L"}, {"measurement": "Activity", "setting": "Rattus norvegicus [18]", "value": 10.1, "unit": "mmol/L"}, {"measurement": "Activity", "setting": "Rattus norvegicus [19]", "value": 6.2, "unit": "mL"}, {"measurement": "Activity", "setting": "Rattus norvegicus [20]", "value": 3.7, "unit": "µmol/min"}, {"measurement": "Activity", "setting": "Rattus norvegicus [21]", "value": 476, "unit": "µmol"}, {"measurement": "Activity", "setting": "Mus musculus [22]", "value": "Dose-Dependent Effect"}, {"measurement": "Activity", "setting": "[23]", "value": "Non-Toxic"}, {"measurement": "Activity", "setting": "Mus musculus [24]", "value": "inactive"}, {"measurement": "Activity", "setting": "Mus musculus [25]", "value": "Active"}]}
